# In US10597388B2, “Pyridazinone herbicides” (FMC CORPORATION, priority 2014, dated 2020):
# Key:
# Assay type in all cases: in vivo
# [1] = tested on: wheat (winter wheat, Triticum aestivum); test: Test C greenhouse herbicide test, pre- and postemergence
# Summary of the method: (§1)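 Seeds sown in loam–sand blend treated preemergence; plants in peat-based medium sprayed postemergence at 2–18 cm (1- to 4-leaf stage); chemicals in non-phytotoxic solvent with surfactant. Greenhouse 13–15 d, then visual rating versus controls on 0–100 scale (0 no effect, 100 complete control).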
# [2] = tested on: blackgrass (Alopecurus myosuroides); test: as above
# Summary of the method: as §1
# [3] = tested on: pigweed (Amaranthus retroflexus); test: as above
# Summary of the method: as §1
# [4] = tested on: morningglory (Ipomoea coccinea); test: as above
# Summary of the method: as §1
# [5] = tested on: foxtail, giant (giant foxtail, Setaria faberii); test: as above
# Summary of the method: as §1
# [6] = tested on: barnyardgrass (Echinochloa crus-galli); test: as above
# Summary of the method: as §1
# [7] = tested on: crabgrass, large (large crabgrass, Digitaria sanguinalis); test: as above
# Summary of the method: as §1
# [8] = tested on: nutsedge, yellow (yellow nutsedge, Cyperus esculentus); test: as above
# Summary of the method: as §1
# [9] = tested on: lambsquarters (Chenopodium album); test: as above
# Summary of the method: as §1
# [10] = tested on: johnsongrass (Sorghum halepense); test: as above
# Summary of the method: as §1
# [11] = tested on: waterhemp (common waterhemp, Amaranthus rudis); test: as above
# Summary of the method: as §1
# [12] = tested on: velvetleaf (Abutilon theophrasti); test: as above
# Summary of the method: as §1
# [13] = tested on: corn (Zea mays); test: as above
# Summary of the method: as §1
# [14] = tested on: oilseed rape (Brassica napus); test: as above
# Summary of the method: as §1
# [15] = tested on: oat, wild (wild oat, Avena fatua); test: Test C greenhouse herbicide test, postemergence; settings: Postemergence
# Summary of the method: (§2)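 Steps: pot plants in peat-based medium; spray postemergence at 1- to 4-leaf stage; hold in greenhouse 13 to 15 d; score visually against controls from 0 (no effect) to 100 (complete control).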
# [16] = tested on: kochia (Kochia scoparia); test: Test C greenhouse herbicide test, postemergence; settings: Postemergence
# Summary of the method: as §2
# [17] = Postemergence, 31 g ai/ha, scale 0 to 100 (0 no effect, 100 complete control)
# [18] = Postemergence, 125 g ai/ha, scale 0 to 100, 0 is no effect, 100 is complete control
# [19] = Postemergence, 250 g ai/ha, scale 0 to 100, 0 no effect, 100 complete control, 13 to 15 d
# [20] = Preemergence, 31 g ai/ha, scale 0 to 100, 0 is no effect, 100 is complete control
# [21] = Preemergence, 62 g ai/ha, scale 0 to 100, 0 is no effect, 100 is complete control
# [22] = Preemergence, 125 g ai/ha, scale 0 to 100, 0 is no effect, 100 is complete control
# [23] = Preemergence, 250 g ai/ha, scale 0 to 100 (0 no effect, 100 complete control)
# [24] = postemergence, 62 g ai/ha, scale 0 to 100, 0 no effect, 100 complete control
# [25] = 31 g ai/ha, scale 0 to 100 (0 no effect, 100 complete control)
# [26] = 125 g ai/ha, scale 0 to 100, 0 is no effect, 100 is complete control
# [27] = 250 g ai/ha, scale 0 to 100, 0 no effect, 100 complete control, 13 to 15 d
compound,measurement,setting,value
CCC(=O)Oc1c(C)nn(C)c(=O)c1-c1c(C)sc2ccc(Cl)cc12 [Compound 109],"Plant response rating, Wheat",[1]; [17],0
same,"Plant response rating, Wheat",[1]; [18],10
same,"Plant response rating, Wheat",[1]; [19],35
same,"Plant response rating, Wheat",[1]; [20],0
same,"Plant response rating, Wheat",[1]; [21],10
same,"Plant response rating, Wheat",[1]; [22],10
same,Wheat plant response rating,[1]; [23],15
same,"Plant response rating, Blackgrass",[2]; [17],20
same,"Plant response rating, Blackgrass",[2]; [18],50
same,"Plant response rating, Blackgrass",[2]; [19],80
same,"Plant response rating, Blackgrass",[2]; [20],35
same,"Plant response rating, Blackgrass",[2]; [21],30
same,"Plant response rating, Blackgrass",[2]; [22],85
same,Blackgrass plant response rating,[2]; [23],90
same,Blackgrass plant response rating,[2]; [24],25
same,"Plant response rating, Pigweed",[3]; [17],95
same,"Plant response rating, Pigweed",[3]; [18],100
same,"Plant response rating, Pigweed",[3]; [19],100
same,"Plant response rating, Pigweed",[3]; [20],100
same,"Plant response rating, Pigweed",[3]; [21],100
same,"Plant response rating, Pigweed",[3]; [22],100
same,Pigweed plant response rating,[3]; [23],100
same,"Plant response rating, Morningglory",[4]; [17],95
same,"Plant response rating, Morningglory",[4]; [18],100
same,"Plant response rating, Morningglory",[4]; [19],100
same,"Plant response rating, Morningglory",[4]; [20],85
same,"Plant response rating, Morningglory",[4]; [21],85
same,"Plant response rating, Morningglory",[4]; [22],90
same,Morningglory plant response rating,[4]; [23],98
same,"Plant response rating, Foxtail, Giant",[5]; [17],45
same,"Plant response rating, Foxtail, Giant",[5]; [18],80
same,"Plant response rating, Foxtail, Giant",[5]; [19],85
same,"Plant response rating, Foxtail, Giant",[5]; [20],65
same,"Plant response rating, Foxtail, Giant",[5]; [21],85
same,"Plant response rating, Foxtail, Giant",[5]; [22],85
same,"Foxtail, Giant plant response rating",[5]; [23],90
same,"Plant response rating, Barnyardgrass",[6]; [17],25
same,"Plant response rating, Barnyardgrass",[6]; [18],55
same,"Plant response rating, Barnyardgrass",[6]; [19],65
same,"Plant response rating, Barnyardgrass",[6]; [20],10
same,"Plant response rating, Barnyardgrass",[6]; [21],35
same,"Plant response rating, Barnyardgrass",[6]; [22],70
same,Barnyardgrass plant response rating,[6]; [23],80
same,Barnyardgrass plant response rating,[6]; [24],30
same,"Plant response rating, Crabgrass, Large",[7]; [17],35
same,"Plant response rating, Crabgrass, Large",[7]; [18],60
same,"Plant response rating, Crabgrass, Large",[7]; [19],60
same,"Plant response rating, Crabgrass, Large",[7]; [20],40
same,"Plant response rating, Crabgrass, Large",[7]; [21],65
same,"Plant response rating, Crabgrass, Large",[7]; [22],70
same,"Crabgrass, Large plant response rating",[7]; [23],80
same,"Crabgrass, Large plant response rating",[7]; [24],40
same,"Plant response rating, Nutsedge, Yellow",[8]; [17],45
same,"Plant response rating, Nutsedge, Yellow",[8]; [18],80
same,"Plant response rating, Nutsedge, Yellow",[8]; [19],80
same,"Plant response rating, Nutsedge, Yellow",[8]; [20],40
same,"Plant response rating, Nutsedge, Yellow",[8]; [21],70
same,"Plant response rating, Nutsedge, Yellow",[8]; [22],90
same,"Nutsedge, Yellow plant response rating",[8]; [23],80
same,"Plant response rating, Lambsquarters",[9]; [17],95
same,"Plant response rating, Lambsquarters",[9]; [18],100
same,"Plant response rating, Lambsquarters",[9]; [19],100
same,"Plant response rating, Lambsquarters",[9]; [20],80
same,"Plant response rating, Lambsquarters",[9]; [21],90
same,"Plant response rating, Lambsquarters",[9]; [22],90
same,Lambsquarters plant response rating,[9]; [23],100
same,"Plant response rating, Johnsongrass",[10]; [17],0
same,"Plant response rating, Johnsongrass",[10]; [18],5
same,"Plant response rating, Johnsongrass",[10]; [19],5
same,"Plant response rating, Johnsongrass",[10]; [20],0
same,"Plant response rating, Johnsongrass",[10]; [21],30
same,"Plant response rating, Johnsongrass",[10]; [22],40
same,Johnsongrass plant response rating,[10]; [23],65
same,"Plant response rating, Waterhemp",[11]; [17],80
same,"Plant response rating, Waterhemp",[11]; [18],90
same,"Plant response rating, Waterhemp",[11]; [19],100
same,"Plant response rating, Waterhemp",[11]; [20],80
same,"Plant response rating, Waterhemp",[11]; [21],90
same,"Plant response rating, Waterhemp",[11]; [22],100
same,Waterhemp plant response rating,[11]; [23],100
same,"Plant response rating, Velvetleaf",[12]; [17],75
same,"Plant response rating, Velvetleaf",[12]; [18],98
same,"Plant response rating, Velvetleaf",[12]; [19],100
same,"Plant response rating, Velvetleaf",[12]; [20],60
same,"Plant response rating, Velvetleaf",[12]; [21],75
same,"Plant response rating, Velvetleaf",[12]; [22],80
same,Velvetleaf plant response rating,[12]; [23],90
same,"Plant response rating, Corn",[13]; [17],0
same,"Plant response rating, Corn",[13]; [18],35
same,"Plant response rating, Corn",[13]; [19],50
same,"Plant response rating, Corn",[13]; [20],5
same,"Plant response rating, Corn",[13]; [21],0
same,"Plant response rating, Corn",[13]; [22],0
same,Corn plant response rating,[13]; [23],0
same,Corn plant response rating,[13]; [24],15
same,"Plant response rating, Oilseed Rape",[14]; [17],70
same,"Plant response rating, Oilseed Rape",[14]; [18],95
same,"Plant response rating, Oilseed Rape",[14]; [19],95
same,"Plant response rating, Oilseed Rape",[14]; [20],5
same,"Plant response rating, Oilseed Rape",[14]; [21],85
same,"Plant response rating, Oilseed Rape",[14]; [22],85
same,Oilseed Rape plant response rating,[14]; [23],90
same,"Plant response rating, Oat, Wild",[15]; [25],80
same,"Plant response rating, Oat, Wild",[15]; [26],90
same,"Plant response rating, Oat, Wild",[15]; [27],90
same,"Plant response rating, Kochia",[16]; [25],95
same,"Plant response rating, Kochia",[16]; [26],100
same,"Plant response rating, Kochia",[16]; [27],100
